A short description of series [1]: Preclinical PET biodistribution of [^18F]FPCA‐F9 solution after tail‐vein injection. The class given is in vivo, C3H mice. The settings on record: C3H, mouse, iv, 13 MBq, total radioactivity, i.v. tail vein; for SUV at 1 h: 1 hour postinjection; for SUV at 20 min: 20 minutes postinjection. The procedure:
C3H mice were anaesthetised using isoflurane induction 4% and maintained 1.5% in 70% N2O and 30% O2 mixture. [^18F]FPCA‐F9 solution was injected in the tail vein (13 MBq, n = 4) of healthy mice or [^18F]FPCA‐F9 hydrogel was injected subcutaneously into the right flank of different healthy mice (2‐5 MBq, n = 3). The acquisition protocol parameters consisted of a preliminary CT scan to determine attenuation correction factors followed by a 1‐ and 4‐hour PET acquisition time for [^18F]FPCA‐F9 solution and hydrogel, respectively. Major excretory organs, including liver, kidney and bladder as well as bone and hydrogel region (in [^18F]FPCA‐F9 hydrogel scans only), were delineated on CT and uptake was quantified as SUV.

The nature of series [2]: [^18F]FPCA‐F9 preclinical metabolite analysis (SE‐HPLC of plasma, kidney, liver, urine). The class given is in vivo, C3H mice. The procedure: […] Plasma was extracted from whole blood samples using a Thermo ALC multispeed refrigerated centrifuge PK121R (8720 g, 4°C for 3 minutes). Kidney and liver samples were homogenised and centrifuged (8720 g, 4°C for 3 minutes), and the supernatant was removed for HPLC analysis. Urine samples were directly injected onto HPLC without sample preparation using a GE Superdex peptide 10/300 GL (GE Healthcare, UK) eluted with PBS (1 mL/min, 220 nm).

Like-named read-outs stand apart in the source and are kept apart here. Where a SMILES comes first, the peptide text is derived from it. The star is where a group is joined. X1 = O=C(CO/N=C/c1cccnc1F)*

On to `NCCCC[C@H](NC(=O)[C@H](CCCCN)NC(=O)[C@H](Cc1ccccc1)NC(=O)[C@H](CCC(=O)O)NC(=O)[C@H](Cc1ccccc1)NC(=O)[C@H](CCCCN)NC(=O)[C@H](Cc1ccccc1)NC(=O)[C@H](CCC(=O)O)NC(=O)[C@H](Cc1ccccc1)NC(=O)CO/N=C/c1cccnc1F)C(=O)O` [[^18F]FPCA‐F9] (X1-FEFKFEFKK-OH), for which the SUV at 1 h in series [1] (bladder, n = 4, read-out: Bladder uptake) is 47.4 ± 7.2 SUV; in series [1] (bone, n = 4, read-out: Bone accumulation), 7.8 ± 2.5 SUV. Besides, the SUV at 20 min in series [1] (bladder, begins to plateau, n = 4, mean ± SD, read-out: Bladder uptake) came to 53.4 ± 16.6 SUV; in series [1] (liver, n = 4, read-out: Liver uptake), 0.7 ± 0.1 SUV. Moreover, the SUV in series [1] (kidney, within 5 minutes postinjection, n = 4, read-out: Kidney uptake) stood at 5.9 ± 1.9 SUV. In series [1] (liver, 5 minutes postinjection, n = 4, read-out: Liver uptake), the SUV at 5 min was found to be 1.4 ± 0.1 SUV. Besides, in series [2] (SE‐HPLC, parent peak at ~18 minutes), the “Metabolites of [^18F]FPCA‐F9 in liver, kidney, urine and plasma samples (in words)” value is listed as “none of the samples analysed showed any metabolite”. The “Plasma stability (in words)” value in series [2] (in vivo, mouse plasma, metabolite analysis by SE‐HPLC) is listed as “high plasma stability”. Further, the “Radioactivity in second peak at ~8 minutes (larger species, aggregation or protein interaction)” value in series [2] (liver and kidney samples, SE‐HPLC) is recorded as ~ 5%. In series [2] (mouse kidney homogenate supernatant after i.v. injection of monomer, after 60 minutes, SE‐HPLC radio‐detection, mean ± SD, n = 4), the “Parent ([^18F]FPCA‐F9) fraction, kidney” value is reported as 95% ± 1%. For the same molecule, in series [2] (mouse liver homogenate supernatant after i.v. injection of monomer, after 60 minutes, SE‐HPLC radio‐detection (Superdex peptide 10/300 GL, PBS), mean ± SD, n = 4), the “Parent ([^18F]FPCA‐F9) fraction, liver” value is 94% ± 0%. Also, the “Parent ([^18F]FPCA‐F9) fraction, plasma” value in series [2] (mouse plasma after i.v. injection of monomer, after 60 minutes, SE‐HPLC radio‐detection, mean, n = 4) is 100%. For the same molecule, the “Parent ([^18F]FPCA‐F9) fraction, urine” value in series [2] (mouse urine after i.v. injection of monomer, after 60 minutes, SE‐HPLC radio‐detection, mean ± SD, n = 4) is listed as 95% ± 1%. In addition, the “Radioactivity in peak at ~12 minutes (larger species)” value in series [2] (urine samples, SE‐HPLC) came out at 5%.

The values above are taken from PMC5601235, “In vivo characterisation of a therapeutically relevant self‐assembling ^18F‐labelled β‐sheet forming peptide and its hydrogel using positron emission tomography” (Journal of Labelled Compounds & Radiopharmaceuticals, 2017).
